Results from patent publication US11963960B2 (Flash Therapeutics, LLC, priority 2020, dated 2024).

Target: N-terminally GST-tagged HCK (75-526) (Homo sapiens (Human), UniProt P08631)
Assay: HCK Kinase Assay (ProFluor Src-Family Kinase Assay)
Assay type: biochemical
Details: HCK inhibitory activity, 50 μM ATP; read-out: HCK Activity
In short: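 ProFluor Src-family format: after the kinase reaction, protease solution was added for 60 min at room temperature (22-25° C), then stabilizer.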

Sequence of N-terminally GST-tagged HCK (75-526) (P08631 75-526): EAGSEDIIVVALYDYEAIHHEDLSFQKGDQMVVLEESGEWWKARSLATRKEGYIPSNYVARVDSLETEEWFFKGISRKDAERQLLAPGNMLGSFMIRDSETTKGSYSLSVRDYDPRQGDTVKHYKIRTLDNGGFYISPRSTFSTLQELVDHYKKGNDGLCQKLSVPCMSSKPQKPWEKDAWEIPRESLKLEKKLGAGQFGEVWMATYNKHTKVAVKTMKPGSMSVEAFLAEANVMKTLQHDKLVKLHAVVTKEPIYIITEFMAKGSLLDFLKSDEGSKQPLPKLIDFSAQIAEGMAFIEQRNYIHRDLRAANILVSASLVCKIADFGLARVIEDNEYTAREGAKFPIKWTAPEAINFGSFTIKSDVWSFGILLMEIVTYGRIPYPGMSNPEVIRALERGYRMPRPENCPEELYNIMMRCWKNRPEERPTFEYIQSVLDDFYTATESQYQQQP

First: C[C@H]1CN([C@H]2CC[C@H](n3cc(-c4ccc(Oc5ccccc5)cc4F)c4c(N)ncnc43)CC2)CCN1 [Example 126, 5-(2-fluoro-4-phenoxyphenyl)-7-((trans)-4-((S)-3-methylpiperazin-1-yl)cyclohexyl)-7H-pyrrolo[2,3-d]pyrimidin-4-amine]
Second: C[C@H]1CN([C@H]2CC[C@@H](n3nc(-c4ccc(Oc5ccccc5)cc4F)c4c(N)ncnc43)CC2)CCN1 [Example 128, 3-(2-fluoro-4-phenoxyphenyl)-1-((cis)-4-((S)-3-methylpiperazin-1-yl)cyclohexyl)-1H-pyrazolo[3,4-d]pyrimidin-4-amine]
The IC50 of the first is lower: less than 50 nM for the first, 50 to 250 nM for the second.

First: C[C@H]1CN([C@H]2CC[C@H](n3cc(-c4ccc(NC(=O)Nc5cc(C(C)(C)C)on5)cc4)c4c(N)ncnc43)CC2)CCN1 [Example 129, 1-(4-(4-amino-7-((trans)-4-((S)-3-methylpiperazin-1-yl)cyclohexyl)-7H-pyrrolo[2,3-d]pyrimidin-5-yl)phenyl)-3-(5-(tert-butyl)isoxazol-3-yl)urea]
Second: C[C@H]1CN([C@H]2CC[C@@H](n3cc(-c4ccc(NC(=O)Nc5cc(C(C)(C)C)on5)cc4)c4c(N)ncnc43)CC2)CCN1 [Example 130, 1-(4-(4-amino-7-((cis)-4-((S)-3-methylpiperazin-1-yl)cyclohexyl)-7H-pyrrolo[2,3-d]pyrimidin-5-yl)phenyl)-3-(5-(tert-butyl)isoxazol-3-yl)urea]
The IC50 of the first is lower: less than 50 nM for the first, 50 to 250 nM for the second.

First: COc1cc(-c2cn([C@H]3CO[C@H](C4CCN(C)CC4)OC3)c3ncnc(N)c23)ccc1Oc1ccccc1 [Example 131, 5-(3-methoxy-4-phenoxyphenyl)-7-((trans)-2-(1-methylpiperidin-4-yl)-1,3-dioxan-5-yl)-7H-pyrrolo[2,3-d]pyrimidin-4-amine]
Second: COc1cc(-c2cn([C@H]3CO[C@@H](C4CCN(C)CC4)OC3)c3ncnc(N)c23)ccc1Oc1ccccc1 [Example 133, 5-(3-methoxy-4-phenoxyphenyl)-7-((cis)-2-(1-methylpiperidin-4-yl)-1,3-dioxan-5-yl)-7H-pyrrolo[2,3-d]pyrimidin-4-amine]
The IC50 of the first is higher: 50 to 250 nM for the first, less than 50 nM for the second.

`COc1cc(-c2cn([C@H]3CC[C@H](N4CCN[C@@H](C)C4)CC3)c3ncnc(N)c23)ccc1Oc1ccccc1` [Example 134, 5-(3-Methoxy-4-phenoxyphenyl)-7-((trans)-4-((S)-3-methylpiperazin-1-yl)cyclohexyl)-7H-pyrrolo[2,3-d]pyrimidin-4-amine] and `COc1cc(-c2cn(C3CCN(C4CCNCC4)CC3)c3ncnc(N)c23)ccc1Oc1ccccc1` [Example 150, 7-([1,4′-bipiperidin]-4-yl)-5-(3-methoxy-4-phenoxyphenyl)-7H-pyrrolo[2,3-d]pyrimidin-4-amine] cannot be ordered by IC50: less than 50 nM for the first, less than 50 nM for the second.

First: CN1CCN(C2CCC(n3nc(-c4ccc(Oc5ccccc5)cc4F)c4c(N)ncnc43)C2)CC1 (stereo not drawn) [Example 135]
Second: CN1CCC(N2CCC(n3nc(-c4ccc(Oc5ccccc5)cc4F)c4c(N)ncnc43)CC2)CC1 [Example 147, 3-(2-fluoro-4-phenoxyphenyl)-1-(1′-methyl-[1,4′-bipiperidin]-4-yl)-1H-pyrazolo[3,4-d]pyrimidin-4-amine]
The IC50 of the first is higher: 50 to 250 nM for the first, less than 50 nM for the second.

`Nc1ncnc2c1c(-c1ccc(Oc3ccccc3)cc1)nn2[C@H]1CC[C@H](n2cc(CO)cn2)CC1` [Example 138, (1-((trans)-4-(4-Amino-3-(4-phenoxyphenyl)-1H-pyrazolo[3,4-d]pyrimidin-1-yl)cyclohexyl)-1H-pyrazol-4-yl)methanol] and `CN1CCOC(C2CCC(n3cc(-c4ccc(Oc5ccccc5)cc4)c4c(N)ncnc43)CC2)C1` (stereo not drawn) [Example 144, 7-(4-(4-Methylmorpholin-2-yl)cyclohexyl)-5-(4-phenoxyphenyl)-7H-pyrrolo[2,3-d]pyrimidin-4-amine] cannot be ordered by IC50: less than 50 nM for the first, less than 50 nM for the second.

First: Nc1ncnc2c1c(-c1ccc(NC(=O)CCc3ccccc3)cc1)cn2C1CCC(C2OCC(N)CO2)CC1 (stereo not drawn) [Example 139, N-(4-(4-Amino-7-(4-(5-amino-1,3-dioxan-2-yl)cyclohexyl)-7H-pyrrolo[2,3-d]pyrimidin-5-yl)phenyl)-3-phenylpropanamide]
Second: CN1CCC([C@H]2OC[C@H](n3cc(-c4ccc(Oc5ccccc5)cc4)c4c(N)ncnc43)CO2)CC1 [Example 145, 7-((2r,5r)-2-(1-Methylpiperidin-4-yl)-1,3-dioxan-5-yl)-5-(4-phenoxyphenyl)-7H-pyrrolo[2,3-d]pyrimidin-4-amine]
The IC50 of the first is higher: 50 to 250 nM for the first, less than 50 nM for the second. The second is the more potent here.

First: Nc1ncnc2c1c(-c1ccc(Oc3ccccc3)cc1)cn2C1CCC2(CC1)CCN(CCCCO)CC2 [Example 140, 4-(9-(4-amino-5-(4-phenoxyphenyl)-7H-pyrrolo[2,3-d]pyrimidin-7-yl)-3-azaspiro[5.5]undecan-3-yl)butan-1-ol]
Second: CN1CCC2(CCC(n3cc(-c4ccc(Oc5ccccc5)cc4)c4c(N)ncnc43)CC2)CC1 [Example 142, 7-(3-methyl-3-azaspiro[5.5]undecan-9-yl)-5-(4-phenoxyphenyl)-7H-pyrrolo[2,3-d]pyrimidin-4-amine]
The IC50 of the first is higher: 50 to 250 nM for the first, less than 50 nM for the second. The second is the more potent here.

First: Nc1ncnc2c1c(-c1ccc(Oc3ccccc3)cc1)cn2C1CCC2(CCNCC2)CC1 [Example 141, 5-(4-phenoxyphenyl)-7-(3-azaspiro[5.5]undecan-9-yl)-7H-pyrrolo[2,3-d]pyrimidin-4-amine]
Second: CN1CCOC(C2CCC(n3cc(-c4ccc(Oc5ccccc5)cc4)c4c(N)ncnc43)CC2)C1=O (stereo not drawn) [Example 143, 2-(4-(4-Amino-5-(4-phenoxyphenyl)-7H-pyrrolo[2,3-d]pyrimidin-7-yl)cyclohexyl)-4-methylmorpholin-3-one]
The IC50 of the first is lower: less than 50 nM for the first, 50 to 250 nM for the second.

`CN1CCC([C@H]2OC[C@@H](n3cc(-c4ccc(Oc5ccccc5)cc4)c4c(N)ncnc43)CO2)CC1` [Example 146, 7-((2s,5s)-2-(1-Methylpiperidin-4-yl)-1,3-dioxan-5-yl)-5-(4-phenoxyphenyl)-7H-pyrrolo[2,3-d]pyrimidin-4-amine] and `COc1cc(-c2cn(C3CCN(C4CCN(C)CC4)CC3)c3ncnc(N)c23)ccc1Oc1ccccc1` [Example 149, 5-(3-methoxy-4-phenoxyphenyl)-7-(1′-methyl-[1,4′-bipiperidin]-4-yl)-7H-pyrrolo[2,3-d]pyrimidin-4-amine] cannot be ordered by IC50: less than 50 nM for the first, less than 50 nM for the second.

Compared with `CN1CCC(N2CCC(n3nc(-c4ccc(NC(=O)Nc5cc(C(C)(C)C)on5)cc4)c4c(N)ncnc43)CC2)CC1` [Example 148, 1-(4-(4-Amino-1-(1′-methyl-[1,4′-bipiperidin]-4-yl)-1H-pyrazolo[3,4-d]pyrimidin-3-yl)phenyl)-3-(5-(tert-butyl)isoxazol-3-yl)urea], `CN1CCC(N2CCC(n3cc(-c4ccc(NC(=O)Nc5cc(C(C)(C)C)on5)cc4)c4c(N)ncnc43)CC2)CC1` [Example 151, 1-(4-(4-amino-7-(1′-methyl-[1,4′-bipiperidin]-4-yl)-7H-pyrrolo[2,3-d]pyrimidin-5-yl)phenyl)-3-(5-(tert-butyl)isoxazole-3-yl)urea] is lower in IC50: 50 to 250 nM for the first, less than 50 nM for the second. The second is the more potent here.

`CCN1CCC(N2CCC(n3nc(-c4ccc(Oc5ccccc5)cc4F)c4c(N)ncnc43)CC2)CC1` [Example 152, 1-(1′-ethyl-[1,4′-bipiperidin]-4-yl)-3-(2-fluoro-4-phenoxyphenyl)-1H-pyrazolo[3,4-d]pyrimidin-4-amine] and `CC(C)N1CCC(N2CCC(n3nc(-c4ccc(Oc5ccccc5)cc4F)c4c(N)ncnc43)CC2)CC1` [Example 153, 3-(2-fluoro-4-phenoxyphenyl)-1-(1′-isopropyl-[1,4′-bipiperidin]-4-yl)-1H-pyrazolo[3,4-d]pyrimidin-4-amine] cannot be ordered by IC50: less than 50 nM for the first, less than 50 nM for the second.
